# Tested on: brain of rats subjected to closed-head diffuse severe TBI (sTBI)
# Experiment: HPLC of free amino acids and amino group containing compounds in brain, dose study after sTBI (Example 3)
# Type: in vivo, rat
# From the text: Male Wistar rats (n=160) of 300-350 g body weight were used in this study.
# 1994, 80: 291-300. This model causes diffuse axonal injury and it is able to reproduce the physical and mechanical characteristics of the diffuse TBI in humans.
# Rats were placed prone on a bed of specific polyurethane foam inserted in a special container. This foam dissipates the major part of the potential energy (deriving from the mechanical forces) and prevents any rebound of the animal after the impact that could produce spinal damages.
# These time points are coincident with the worst biochemical derangement (2 days) or, in the case of a mildly injured brain, with a full metabolic recovery (7 days).
# The drug treatment consisted in a subcutaneous injection of 0.5 ml of LMW-DS (Tikomed) and administered at 3 different concentrations (1, 5 and 15 mg/kg body weight), according to the schematic protocol described below.
# Sham-operated animals underwent the same procedure of anesthesia but TBI and were used as the control group.
# Rats used in this study were divided into 4 groups in order to carry out a study on the efficacy of three different concentrations of LMW-DS at two different times post TBI. As subsequently specified, in each group there were animals subjected to a specific treatment for metabolic analyses and other animals intended to histo-morphological studies, according to the procedures described below.
# Rats subjected to sTBI and receiving a single administration of LMW-DS after 30 minutes post-TBI, with sacrifice at 2 days post-TBI. Animals were divided in the following subgroups:
# Rats subjected to sTBI and receiving a single administration of LMW-DS after 30 minutes post-TBI, with sacrifice at 7 days post-TBI. Animals were divided in the following subgroups:
# Rats (n=12) subjected to sTBI and receiving repeated administrations of the maximal dose of LMW-DS (15 mg/kg b.w.) after 30 minutes, 3 days and 5 days post-TBI, with sacrifice at 7 days post-TBI. Four additional rats were used for the histo-morphological studies. Total rats in this group: n=16
# To minimize metabolite loss, an in vivo craniectomy was performed in all animals during anesthesia. The rat skull was carefully removed, the brain was exposed, sharply cut along the sagittal fissure and the two hemispheres were separated. The hemispheres dedicated to biochemical analyses were freeze-clamped by aluminum tongues pre-cooled in liquid nitrogen and then immersed in liquid nitrogen. The freeze-clamping procedure was introduced to accelerate freezing of the tissue, thus minimizing potential metabolite loss.
# Tissue homogenization for metabolite analyses was effected as described below. After the wet weight (w.w.) determination, the frozen hemispheres were placed into 7 ml of ice-cold, nitrogen-saturated, precipitating solution (1:10 w/v) composed by CH3CN+10 mM KH2PO4, pH 7.40, (3:1; v:v), and the homogenization was performed using an Ultra-Turrax homogenizer set at 24,000 rpm/min (Janke & Kunkel, Staufen, Germany). After centrifugation at 20,690×g, for 10 min at 4° C., the clear supernatants were saved, pellets were supplemented with an aliquot of 10 mM KH2PO4 and homogenized again as described above and saved overnight at −20° C. in order to obtain a complete recovery of aqueous phase from tissue. A second centrifugation was performed (20,690×g, for 10 min at 4° C.) and supernatants combined with those previously obtained were extracted by vigorous agitation with a double volume of HPLC-grade CHCl3 and centrifuged as above.
# [1] = rats 2 days post-TBI, single 1 mg/kg b.w. 30 min after trauma
# [2] = rats 2 days post-TBI, single 5 mg/kg b.w. 30 min after trauma
# [3] = rats 2 days post-TBI, single 15 mg/kg b.w. 30 min after trauma
# [4] = rats 7 days post-sTBI, repeated 15 mg/kg b.w.
# [5] = rats 7 days post-sTBI, single 1 mg/kg b.w.
# [6] = rats 7 days post-sTBI, single 5 mg/kg b.w.
# [7] = rats 7 days post-sTBI, single 15 mg/kg b.w.
substance,measurement,setting,value
sodium salt of dextran sulfate [LMW-DS],isoleucine (ILE),2 days post-TBI,restored
same,osmolyte and aromatic free amino acids,2 days post-TBI,No remarkable effects
same,methionine,"2 days post-TBI, any dose tested",Restoration
same,TAU concentrations,7 days after injury,normalized
same,L-Cystathionine (L-Cystat),"7 days post impact, highest dose, single or repeat",significant increase
same,GLU,"7 days post injury, 15 mg/kg b.w. single or repeat",normalization
same,ARG concentration in brain homogenate,[1],0.13 ± 0.03 nmol/g w.w.
same,ASN concentration in brain homogenate,[1],0.13 ± 0.02 µmol/g w.w.
same,ASP concentration in brain homogenate,[1],4.17 ± 0.99 nmol/g w.w.
same,GABA concentration in brain homogenate,[1],1.87 ± 0.17 µmol/g w.w.
same,GLN concentration in brain homogenate,[1],4.37 ± 0.59 µmol/g w.w.
same,GLU concentration in brain homogenate,[1],12.5 ± 0.91 µmol/g w.w.
same,GLY concentration in brain homogenate,[1],1.35 ± 0.26 nmol/g w.w.
same,LYS concentration in brain homogenate,[1],0.29 ± 0.11 µmol/g w.w.
same,MET concentration in brain homogenate,[1],0.04 ± 0.01 µmol/g w.w.
same,ORN concentration in brain homogenate,[1],0.02 ± 0.01 µmol/g w.w.
same,SAH concentration in brain homogenate,[1],0.07 ± 0.02 nmol/g w.w.
same,TAU concentration in brain homogenate,[1],4.98 ± 0.47 nmol/g w.w.
same,THR concentration in brain homogenate,[1],0.70 ± 0.15 nmol/g w.w.
same,TRP concentration in brain homogenate,[1],0.02 ± 0.01 µmol/g w.w.
same,TYR concentration in brain homogenate,[1],0.18 ± 0.03 nmol/g w.w.
same,VAL concentration in brain homogenate,[1],0.07 ± 0.03 µmol/g w.w.
same,ARG concentration in brain homogenate,[2],0.13 ± 0.03 nmol/g w.w.
same,ASP concentration in brain homogenate,[2],4.15 ± 0.95 nmol/g w.w.
same,GABA concentration in brain homogenate,[2],1.99 ± 0.18 µmol/g w.w.
same,GLN concentration in brain homogenate,[2],4.55 ± 0.44 µmol/g w.w.
same,GLY concentration in brain homogenate,[2],1.43 ± 0.28 nmol/g w.w.
same,L-Cystat concentration in brain homogenate,[2],0.31 ± 0.06 µmol/g w.w.
same,LYS concentration in brain homogenate,[2],0.37 ± 0.14 µmol/g w.w.
same,ORN concentration in brain homogenate,[2],0.01 ± 0.01 µmol/g w.w.
same,SAH concentration in brain homogenate,[2],0.07 ± 0.02 nmol/g w.w.
same,TAU concentration in brain homogenate,[2],5.15 ± 0.49 nmol/g w.w.
same,THR concentration in brain homogenate,[2],0.77 ± 0.17 nmol/g w.w.
same,TRP concentration in brain homogenate,[2],0.03 ± 0.01 µmol/g w.w.
same,TYR concentration in brain homogenate,[2],0.20 ± 0.03 nmol/g w.w.
same,VAL concentration in brain homogenate,[2],0.08 ± 0.03 µmol/g w.w.
same,ARG concentration in brain homogenate,[3],0.16 ± 0.04 nmol/g w.w.
same,ASP concentration in brain homogenate,[3],3.05 ± 0.42 nmol/g w.w.
same,GLN concentration in brain homogenate,[3],4.21 ± 0.51 µmol/g w.w.
same,GLY concentration in brain homogenate,[3],1.18 ± 0.23 nmol/g w.w.
same,LEU concentration in brain homogenate,[3],0.04 ± 0.01 µmol/g w.w.
same,LYS concentration in brain homogenate,[3],0.32 ± 0.12 µmol/g w.w.
same,MET concentration in brain homogenate,[3],0.03 ± 0.01 µmol/g w.w.
same,ORN concentration in brain homogenate,[3],0.02 ± 0.01 µmol/g w.w.
same,SAH concentration in brain homogenate,[3],0.06 ± 0.02 nmol/g w.w.
same,TAU concentration in brain homogenate,[3],4.59 ± 0.43 nmol/g w.w.
same,THR concentration in brain homogenate,[3],0.61 ± 0.13 nmol/g w.w.
same,TYR concentration in brain homogenate,[3],0.17 ± 0.03 nmol/g w.w.
same,VAL concentration in brain homogenate,[3],0.06 ± 0.03 µmol/g w.w.
same,ALA concentration in brain homogenate,[4],0.47 ± 0.05 µmol/g w.w.
same,ASN concentration in brain homogenate,[4],0.1 ± 0.02 µmol/g w.w.
same,ASP concentration in brain homogenate,[4],2.42 ± 0.39 nmol/g w.w.
same,CITR concentration in brain homogenate,[4],0.03 ± 0.01 µmol/g w.w.
same,GABA concentration in brain homogenate,[4],1.38 ± 0.14 µmol/g w.w.
same,GLN concentration in brain homogenate,[4],3.88 ± 0.4 µmol/g w.w.
same,GLY concentration in brain homogenate,[4],0.78 ± 0.10 nmol/g w.w.
same,HYS concentration in brain homogenate,[4],0.06 ± 0.01 µmol/g w.w.
same,ILE concentration in brain homogenate,[4],0.03 ± 0.01 µmol/g w.w.
same,LEU concentration in brain homogenate,[4],0.04 ± 0.01 µmol/g w.w.
same,LYS concentration in brain homogenate,[4],0.23 ± 0.07 µmol/g w.w.
same,ORN concentration in brain homogenate,[4],0.02 ± 0.01 µmol/g w.w.
same,SAH concentration in brain homogenate,[4],0.04 ± 0.04 nmol/g w.w.
same,TAU concentration in brain homogenate,[4],3.47 ± 0.44 nmol/g w.w.
same,THR concentration in brain homogenate,[4],0.77 ± 0.14 nmol/g w.w.
same,TYR concentration in brain homogenate,[4],0.14 ± 0.02 nmol/g w.w.
same,VAL concentration in brain homogenate,[4],0.07 ± 0.01 µmol/g w.w.
same,ALA concentration in brain homogenate,[5],0.57 ± 0.06 µmol/g w.w.
same,ARG concentration in brain homogenate,[5],0.13 ± 0.02 nmol/g w.w.
same,ASN concentration in brain homogenate,[5],0.1 ± 0.02 µmol/g w.w.
same,ASP concentration in brain homogenate,[5],4.17 ± 0.67 nmol/g w.w.
same,CITR concentration in brain homogenate,[5],0.03 ± 0.01 µmol/g w.w.
same,GABA concentration in brain homogenate,[5],1.73 ± 0.18 µmol/g w.w.
same,GLN concentration in brain homogenate,[5],4.1 ± 0.42 µmol/g w.w.
same,GLU concentration in brain homogenate,[5],12.1 ± 1.02 µmol/g w.w.
same,GLY concentration in brain homogenate,[5],0.98 ± 0.20 nmol/g w.w.
same,HYS concentration in brain homogenate,[5],0.06 ± 0.01 µmol/g w.w.
same,L-Cystat concentration in brain homogenate,[5],0.24 ± 0.04 µmol/g w.w.
same,LYS concentration in brain homogenate,[5],0.19 ± 0.06 µmol/g w.w.
same,MET concentration in brain homogenate,[5],0.03 ± 0.01 µmol/g w.w.
same,ORN concentration in brain homogenate,[5],0.01 ± 0.01 µmol/g w.w.
same,SAH concentration in brain homogenate,[5],0.04 ± 0.01 nmol/g w.w.
same,SER concentration in brain homogenate,[5],0.92 ± 0.16 µmol/g w.w.
same,TAU concentration in brain homogenate,[5],4.02 ± 0.51 nmol/g w.w.
same,THR concentration in brain homogenate,[5],0.71 ± 0.12 nmol/g w.w.
same,TYR concentration in brain homogenate,[5],0.13 ± 0.02 nmol/g w.w.
same,VAL concentration in brain homogenate,[5],0.08 ± 0.01 µmol/g w.w.
same,ALA concentration in brain homogenate,[6],0.44 ± 0.05 µmol/g w.w.
same,ARG concentration in brain homogenate,[6],0.15 ± 0.02 nmol/g w.w.
same,ASN concentration in brain homogenate,[6],0.1 ± 0.02 µmol/g w.w.
same,ASP concentration in brain homogenate,[6],3.63 ± 0.59 nmol/g w.w.
same,CITR concentration in brain homogenate,[6],0.03 ± 0.01 µmol/g w.w.
same,GLN concentration in brain homogenate,[6],3.86 ± 0.4 µmol/g w.w.
same,GLU concentration in brain homogenate,[6],11.8 ± 0.99 µmol/g w.w.
same,GLY concentration in brain homogenate,[6],0.88 ± 0.15 nmol/g w.w.
same,HYS concentration in brain homogenate,[6],0.06 ± 0.01 µmol/g w.w.
same,L-Cystat concentration in brain homogenate,[6],0.26 ± 0.04 µmol/g w.w.
same,LYS concentration in brain homogenate,[6],0.21 ± 0.04 µmol/g w.w.
same,MET concentration in brain homogenate,[6],0.04 ± 0.01 µmol/g w.w.
same,TAU concentration in brain homogenate,[6],3.51 ± 0.44 nmol/g w.w.
same,THR concentration in brain homogenate,[6],0.71 ± 0.15 nmol/g w.w.
same,TRP concentration in brain homogenate,[6],0.02 ± 0.01 µmol/g w.w.
same,TYR concentration in brain homogenate,[6],0.13 ± 0.02 nmol/g w.w.
same,VAL concentration in brain homogenate,[6],0.08 ± 0.01 µmol/g w.w.
same,ALA concentration in brain homogenate,[7],0.38 ± 0.04 µmol/g w.w.
same,ARG concentration in brain homogenate,[7],0.14 ± 0.02 nmol/g w.w.
same,ASN concentration in brain homogenate,[7],0.1 ± 0.02 µmol/g w.w.
same,CITR concentration in brain homogenate,[7],0.03 ± 0.01 µmol/g w.w.
same,GABA concentration in brain homogenate,[7],1.43 ± 0.15 µmol/g w.w.
same,GLN concentration in brain homogenate,[7],3.73 ± 0.38 µmol/g w.w.
same,GLU concentration in brain homogenate,[7],10.2 ± 0.86 µmol/g w.w.
same,GLY concentration in brain homogenate,[7],0.78 ± 0.12 nmol/g w.w.
same,HYS concentration in brain homogenate,[7],0.06 ± 0.01 µmol/g w.w.
same,L-Cystat concentration in brain homogenate,[7],0.25 ± 0.04 µmol/g w.w.
same,LYS concentration in brain homogenate,[7],0.21 µmol/g w.w.
same,MET concentration in brain homogenate,[7],0.04 ± 0.01 µmol/g w.w.
same,SAH concentration in brain homogenate,[7],0.04 ± 0.01 nmol/g w.w.
same,SER concentration in brain homogenate,[7],0.76 ± 0.12 µmol/g w.w.
same,TAU concentration in brain homogenate,[7],3.38 ± 0.44 nmol/g w.w.
same,THR concentration in brain homogenate,[7],0.72 ± 0.14 nmol/g w.w.
same,TYR concentration in brain homogenate,[7],0.14 ± 0.02 nmol/g w.w.
